The test system of one data set is Gallus gallus. Conditions: oral, diet.
The mark [1] stands for this setting: subchronic, duration: 90 days, oral, diet, M/F, Sprague-Dawley, no effects.
Where [2] appears, read: subchronic, duration: 42 days, oral, gavage, M/F, body weight.
Setting [3] is: subchronic, duration: 13 weeks, oral, diet, M/F, no effects.
Where [4] appears, read: subchronic, duration: 90 days, oral.

A word on the NOAEL: it is the highest dose or exposure tested at which no adverse effect was seen. In the data set with Rattus norvegicus (subchronic, duration: 13 weeks, oral, gavage, M/F, Crj:CD, no effects), `CC(=O)NCCS(=O)(=O)O.CC(=O)NCCS(=O)(=O)O.[Mg]` came in with an NOAEL of 1000 mg/kg-day.

Consider `Cc1nc2cccc(OCC(C)(C)C(=O)NC(C)C)c2c(N)c1C(=O)O`, for which the NOAEL is 1000 mg/kg-day in the data set with Rattus norvegicus (reproduction developmental, oral, gavage, F, Crj:CD, no effects) and 100 mg/kg-day in the data set on Rattus norvegicus (subchronic, duration: 13 weeks, oral, diet, M/F, Crj:CD, no effects). Consider `Cc1sc2nc(=O)[nH]c(N)c2c1C.Cl`, for which the NOAEL with Rattus norvegicus (subchronic, duration: 13 weeks, oral, diet, M/F, Sprague-Dawley, no effects) was found to be 60 mg/kg-day. With `COc1cc(S(=O)(=O)[O-])c(C)cc1N=Nc1c(O)ccc2cc(S(=O)(=O)[O-])ccc12.[Na+].[Na+]`, the NOAEL with Rattus norvegicus (chronic, oral, M/F, body weight) turned out to be 701 mg/kg-day; with Rattus norvegicus (developmental, M, development), 701 mg/kg-day; in the data set with Rattus norvegicus (reproduction developmental, growth) it was 695 mg/kg-day; in the data set on Rattus norvegicus (reproduction developmental, oral, M/F, growth) it was 695 mg/kg-day. In the data set with Rattus norvegicus (subchronic, duration: 90 days, oral, diet, M, hematological), `CC1OCCC12SC1CCOC1(C)S2` (stereo not drawn) yielded an NOAEL of 25 mg/kg-day. `C[n+]1cccc(C(=N)[O-])c1.Cl` gave an NOAEL with Rattus norvegicus (chronic, duration: 91 days, oral, gavage, M/F, clinical chemistry) of 250 mg/kg-day. With `NC(=O)Cc1cccc2ccccc12` [1-Naphthaleneacetamide], the NOAEL in the data set on Rattus norvegicus (developmental, development) was 15 mg/kg-day; in the data set with Rattus norvegicus (subchronic, duration: 90 days, oral, hematological) it was 10 mg/kg-day. With `C=CCSCC=C` [1-Propene, 3,3'-thiobis-], the NOAEL in the data set with Rattus norvegicus (chronic, duration: 14 weeks, oral, gavage, M/F, Wistar, no effects) came to 250 mg/kg-day. As to `CSCSCSC` [2,4,6-Trithiaheptane], the NOAEL in the data set with Rattus norvegicus (setting [1]) worked out at 0.2 mg/kg-day. The same measure, in the same setting: the figure for `CC1(O)CSC(C)(O)CS1` (stereo not drawn) [2,5-Dimethyl-1,4-dithiane-2,5-diol] is 3.14 mg/kg-day.

Turning to `CC(=O)C1=NCCS1` [2-Acetyl-2-thiazoline], the NOAEL in the data set with Rattus norvegicus (subchronic, duration: 90 days) amounted to 1.8 mg/kg-day; in the data set with Rattus norvegicus (subchronic, duration: 90 days, oral, diet, M/F, no effects) it was 1.8 mg/kg-day. For the compound `CCC(CC)C(=O)O` [2-Ethylbutyric acid], the NOAEL with Rattus norvegicus (reproduction developmental, duration: 10 days, oral, gavage, F, Sprague-Dawley, no effects) worked out at 200 mg/kg-day; in the data set with Rattus norvegicus (reproduction developmental, duration: 10 days, oral, gavage, F, no effects), 200 mg/kg-day. The compound `CC(O)C(=O)NCCc1ccc(O)cc1` (stereo not drawn) [2-Hydroxy-N-[2-(4-hydroxyphenyl)ethyl]propanimidic acid] returned an NOAEL in the data set on Rattus norvegicus (subchronic, duration: 90 days, oral, M/F) of 8.4 mg/kg-day.

In the data set on Rattus norvegicus (subchronic, duration: 49 days, oral, gavage, histopathology: nonneoplastic), `COc1ccccc1C=O` [2-Methoxybenzaldehyde] showed an NOAEL of 10 mg/kg-day. On to `O=C1OC(=O)C2C3C=CC(C3)C12` (stereo not drawn) [2-Norbornene-5,6-dicarboxylic anhydride], for which the NOAEL in the data set with Rattus norvegicus (subchronic, duration: 90 days, oral, gavage, M/F, body weight) worked out at 250 mg/kg-day. Turning to `C=CCCN=C=S` [3-Butenyl isothiocyanate], the no-observed-adverse-effect level (NOAEL) in the data set with Rattus norvegicus (chronic, duration: 721 days, oral, gavage, M/F, histopathology: neoplastic) came out at 12 mg/kg-day. Take `CCOc1cc(C=O)ccc1O` [3-Ethoxy-4-hydroxybenzaldehyde]: in the data set on Rattus norvegicus (chronic, duration: 14 weeks), the no observed adverse effect level (NOAEL) amounted to 500 mg/kg-day. For `C=CCc1cc(OC)c(O)c(OC)c1` [4-Allyl-2,6-dimethoxyphenol], the NOAEL in the data set on Rattus norvegicus (subchronic, duration: 90 days, clinical chemistry) is 300 mg/kg-day. For `COc1ccc(C=O)cc1` [4-Methoxybenzaldehyde], the no observed adverse effect level (NOAEL) with Rattus norvegicus (setting [2]) was 20 mg/kg-day. Same read-out and setting: the figure for `COc1ccc(COC(C)=O)cc1` [4-Methoxybenzyl acetate] is 20 mg/kg-day. Regarding `CCC(=O)CC(C)CC` (stereo not drawn) [5-Methyl-3-heptanone], the NOAEL was 82 mg/kg-day with Rattus norvegicus (subchronic, duration: 13 weeks, oral, gavage, M, Sprague-Dawley, behavior); 82 mg/kg-day with Rattus norvegicus (subchronic, duration: 13 weeks, oral, gavage, M, Sprague-Dawley, clinical signs); 82 mg/kg-day with Rattus norvegicus (subchronic, duration: 13 weeks, oral, gavage, M, behavior); 82 mg/kg-day with Rattus norvegicus (subchronic, duration: 13 weeks, oral, gavage, M, neurology).

As to `CC(=O)OC1(C)CCCC(C)(C)C12CCC(C)O2` (stereo not drawn) [6-Acetoxydihydrotheaspirane], in the data set on Rattus norvegicus (subchronic, duration: 90 days, oral, diet, M/F, Crj:CD, food efficiency), the NOAEL is 52 mg/kg-day. For `CCCCCC1CC=CC(=O)O1` (stereo not drawn) [6-Pentyl-5,6-dihydro-2H-pyran-2-one], the NOAEL in the data set with Rattus norvegicus (subchronic, duration: 90 days) is 12.1 mg/kg-day. In the data set on Rattus norvegicus (setting [3]), `CCC/C=C/C=O` [(2E)-2-Hexenal] came in with an NOAEL of 257 mg/kg-day. On to `C/C=C/C=C/C=O` [(2E,4E)-2,4-Hexadienal], for which, in the data set on Rattus norvegicus (chronic, duration: 14 weeks, oral, gavage, M/F, body weight), the NOAEL worked out at 15 mg/kg-day. The compound `CC(C)(C)c1ccc(CC#N)cc1` [(4-tert-Butylphenyl)acetonitrile] had an NOAEL in the data set on Rattus norvegicus (short-term, duration: 28 days) of 6.5 mg/kg-day. In the data set on Rattus norvegicus (setting [1]), `C=CC(C)(O)C/C=C/C(=C)C` (stereo not drawn) [(E)-3,7-Dimethylocta-1,5,7-trien-3-ol] returned an NOAEL of 44 mg/kg-day. In turn, `C=CCSC(=O)CCCCC` [Allyl thiohexanoate] gave a no observed adverse effect level (NOAEL) in the data set on Rattus norvegicus (setting [4]) of 6.63 mg/kg-day. The same measure, in the same setting: the figure for `CSc1ccccc1` [Benzene, (methylthio)-] is 0.43 mg/kg-day. Consider `Cc1occc1SSc1ccoc1C` [Bis(2-methyl-3-furyl)disulfide], for which the NOAEL with Rattus norvegicus (subchronic, duration: 90 days, oral, diet, M/F, Wistar, no effects) came to 0.45 mg/kg-day; in the data set with Rattus norvegicus (subchronic, duration: 90 days, oral, diet, Wistar, no effects) it was 0.45 mg/kg-day. In turn, `CC(C)(c1ccc(OCC2CO2)cc1)c1ccc(OCC2CO2)cc1` (stereo not drawn) [Bisphenol A diglycidyl ether] returned an NOAEL with Rattus norvegicus (chronic, duration: 2 years, oral, gavage, M/F, Fischer 344, organ weight) of 15 mg/kg-day. For `COc1ccc(O)c(C(C)(C)C)c1` [Butylated hydroxyanisole], the NOAEL in the data set with Rattus norvegicus (developmental, oral, Sprague-Dawley, development) was determined as 100 mg/kg-day. As a reminder, the LOAEL is the lowest dose or exposure tested at which an adverse effect was seen. On to `CCCCOC(=O)c1ccccc1C(=O)OCCCC` [Dibutyl 1,2-benzenedicarboxylate], for which the LOAEL with Rattus norvegicus (reproduction developmental, oral, F, histopathology: nonneoplastic) is 2 mg/kg-day. In turn, `CC(C)SSSC(C)C` [Diisopropyl trisulfide] gave an NOEL in the data set on Rattus norvegicus (subchronic, duration: 13 weeks, oral, gavage) of 4.8 mg/kg-day. As to `CS(C)=O` [Dimethyl sulfoxide], the NOAEL with Rattus norvegicus (repeat dose other, oral, gavage, F, no effects) is 1000 mg/kg-day.

For `C[N+](C)(C)[C@@H](Cc1c[nH]c(=S)[nH]1)C(=O)[O-]` [Ergothioneine], the NOEL in the data set on Rattus norvegicus (reproduction developmental, duration: 13 weeks, oral, diet, M/F, Sprague-Dawley, no effects) amounted to 725 mg/kg-day. Moreover, the no observed adverse effect level (NOAEL) in the data set on Rattus norvegicus (short-term, duration: 28 days, oral, gavage, M/F, Sprague-Dawley, hematological) is 800 mg/kg-day.

Compound `CCCCCCCCCCCC(=O)N[C@@H](CCCN=C(N)N)C(=O)OCC.Cl` [Ethyl-N2-dodecanoyl-L-argininate hydrochloride] returned a no observed adverse effect level (NOAEL) in the data set with Rattus norvegicus (subchronic, duration: 13 weeks, oral, M/F, Sprague-Dawley, clinical chemistry) of 47 mg/kg-day. For the compound `CCN(Cc1cccc(S(=O)(=O)[O-])c1)c1ccc(C(=C2C=CC(=[N+](CC)Cc3cccc(S(=O)(=O)[O-])c3)C=C2)c2ccccc2S(=O)(=O)[O-])cc1.[Na+].[Na+]` [FD&C Blue No. 1], the NOAEL with Rattus norvegicus (chronic, duration: 30 months, oral, diet, M/F, mortality) amounted to 631 mg/kg-day; in the data set with Rattus norvegicus (chronic, other), 631 mg/kg-day. On to `NCC(=O)[O-].NCC(=O)[O-].[Fe+2]` [Ferrous bisglycinate], for which the LD50 in the data set on Rattus norvegicus (acute, oral, M/F, mortality) turned out to be 2800 mg/kg-day. For the same compound, in the data set on Rattus norvegicus (subchronic, duration: 13 weeks, oral, Sprague-Dawley, no effects), the NOAEL was 500 mg/kg-day. `C=O` [Formaldehyde]: the NOAEL in the data set on Rattus norvegicus (chronic, duration: 104 weeks, oral, drinking water, M/F, Wistar, histopathology: nonneoplastic) is 15 mg/kg-day. Moreover, the LEL in the data set with Gallus gallus (short-term, duration: 28 days, no effects) was determined as 990 mg/kg-day. The compound `CCOC(OCC)c1ccco1` [Furan, 2-(diethoxymethyl)-] gave an NOEL with Rattus norvegicus (subchronic, duration: 90 days, oral, diet, M/F, Fischer 344, hematological) of 54 mg/kg-day. For `CC(C=O)c1ccccc1` (stereo not drawn) [Hydratropaldehyde], the NOAEL in the data set with Rattus norvegicus (chronic, duration: 15 weeks, oral, gavage, M/F, organ weight) was found to be 50 mg/kg-day.

Regarding `NCCCC[C@H](N)C(=O)O.O=S(=O)(O)O` [L-Lysine sulphate], the LEL with Rattus norvegicus (subchronic, duration: 90 days, oral, gavage, M/F, Sprague-Dawley, histopathology: neoplastic) stood at 1000 mg/kg-day.

`C=CC(C)(O)CCC=C(C)C` (stereo not drawn) [Linalool] came in with a no observed adverse effect level (NOAEL) in the data set on Rattus norvegicus (short-term, duration: 28 days, oral, M/F, histopathology: nonneoplastic) of 117 mg/kg-day. Compound `COC(=O)c1cc(Cl)ccc1Cl` [Methyl 2,5-dichlorobenzoate] showed an NOAEL with Rattus norvegicus (short-term, duration: 28 days, oral, clinical signs) of 100 mg/kg-day. With `CNc1ccccc1C(=O)OC` [Methyl N-methylanthranilate], the NOAEL in the data set on Rattus norvegicus (subchronic, duration: 90 days, organ weight) was 20 mg/kg-day. Compound `COC(=O)CSCc1ccco1` [Methyl {[(furan-2-yl)methyl]sulfanyl}acetate] gave an NOAEL with Rattus norvegicus (subchronic, duration: 90 days, oral, diet, M/F, clinical chemistry) of 5.78 mg/kg-day. Consider `C=CC(=C)CCC=C(C)C` [Myrcene], for which the NOAEL with Rattus norvegicus (setting [1]) stood at 44 mg/kg-day. Regarding `C[C@@H]1O[C@@H](O[C@H]2[C@H](Oc3cc(O)c4c(c3)O[C@H](c3ccc(O)cc3)CC4=O)O[C@H](CO)[C@@H](O)[C@@H]2O)[C@H](O)[C@H](O)[C@H]1O` [Naringin], in the data set on Rattus norvegicus (chronic, duration: 400 days, oral, diet, food consumption), the NOAEL turned out to be 1250 mg/kg-day.

`O=C(O)c1cc(=O)[nH]c(=O)[nH]1` [Orotic acid]: in the data set on Rattus norvegicus (chronic, duration: 20 weeks, oral, diet, histopathology: neoplastic), the NOAEL is 50 mg/kg-day. As to `O=C(/C=C/C=C/c1ccc2c(c1)OCO2)N1CCCCC1` [Piperine], the NOAEL in the data set on Rattus norvegicus (subchronic, duration: 90 days, oral, diet, M/F, Crj:CD, clinical chemistry) was found to be 5 mg/kg-day.

`O=Cc1ccc2c(c1)OCO2` [Piperonal] showed an NOAEL with Rattus norvegicus (chronic, duration: 2 years) of 250 mg/kg-day.

Consider `SCCc1cnccn1` [Pyrazineethanethiol], for which the NOAEL in the data set with Rattus norvegicus (setting [3]) stood at 1.63 mg/kg-day. On the same count and under the same terms, the figure for `CSc1cnccn1` [Pyrazinyl methyl sulfide] is 1.63 mg/kg-day. Turning to `CCSC(C)=O` [S-Ethyl thiolacetate], in the data set with Rattus norvegicus (subchronic, duration: 13 weeks, oral, diet), the NOEL was determined as 6.5 mg/kg-day. Regarding `CN(C)CC(=O)O.[H-].[Na+]` [Sodium N,N-dimethylglycinate], in the data set with Gallus gallus (subchronic, duration: 39 days, M/F, food consumption), the LEL came to 10000 mg/kg-day. Regarding `O=C1O[C@H]([C@H](O)CO)C([O-])=C1O.[Na+]` [Sodium erythorbate], the NOAEL in the data set with Rattus norvegicus (chronic, duration: 2 years, oral, drinking water, M/F, Fischer 344, body weight) was found to be 650 mg/kg-day.

The compound `[Na+].[Na+].[O-]B1OB2OB([O-])OB(O1)O2` [Sodium tetraborate (Na2B4O7)] displayed an NOAEL in the data set with Rattus norvegicus (developmental, duration: 20 days, F, Sprague-Dawley, development) of 55 mg/kg-day.

These data come from EPA's ToxValDB 9.5.
